Data set [1] relates to ThyX. Particulars: cited from earlier work.
Data set [2] deals with T1, Mtb ThyX (Mycobacterium tuberculosis, UniProt P9WG57). As to the kind of experiment: M. tuberculosis ThyX NADPH oxidase assay. The class given is biochemical. Particulars: for Inhibition % (Mtb ThyX) / inhibition at 200 µM: 200 μM compound.
Data set [3] deals with T1, Mtb ThyX. Description: M. tuberculosis ThyX tritium release assay. The class given is biochemical. The conditions noted are these: 200 µM compound; for ThyX inhibition, tritium release assay: 200 µM.
In data set [4] the test system is viral pathogens. As to the kind of experiment: Evaluation on viral pathogens.
Data set [5] in a line: in vitro. The class given is cell-based. The conditions noted are these: human. As for the experimental part:
Assays were performed in human peripheral blood mononuclear (PBM) cells via MTS assay using the CellTiter 96® Non-Radioactive Cell Proliferation (Promega) kit. Cytotoxicity was expressed as the concentration of test compounds that inhibited cell growth by 50% (CC50).

The mark [6] stands for this setting: 50 µM inhibitor concentration, read-out: ThyX inhibition at 50 µM of inhibitors.
[7] abbreviates: NADPH oxidase assay, 50 µM FAD, read-out: Inhibition % (Mtb ThyX).
Setting [8] is: absence of added FAD, read-out: ThyX inhibition without FAD addition.

Read-outs that look alike come from different tables or passages of the source.

T1 sequence (P9WG57 whole entry): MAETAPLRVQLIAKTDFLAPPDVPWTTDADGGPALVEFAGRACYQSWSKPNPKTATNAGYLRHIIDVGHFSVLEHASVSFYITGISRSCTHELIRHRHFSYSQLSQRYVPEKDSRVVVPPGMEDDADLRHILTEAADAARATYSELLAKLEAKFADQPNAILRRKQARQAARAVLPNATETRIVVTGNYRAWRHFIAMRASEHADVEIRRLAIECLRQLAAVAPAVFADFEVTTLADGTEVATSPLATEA

`CCOC(=O)[C@@H]1CSC(c2ccccc2)N1C(=O)c1cn(CCCNC(=O)C(F)(F)F)nn1` (stereo partly drawn) [Compound 1]: the 50% inhibitory concentration (IC50) (commonly the concentration needed to halve the response being measured) in data set [1] (read-out: IC50 against ThyX) was 57 nM.

On to `O=C1C(O)=C(c2ccco2)C(=O)c2ccccc21` [Compound 2], for which the Ki (as a rule, the equilibrium dissociation constant of an inhibitor or competing ligand from its target) in data set [1] (read-out: inhibitory Ki against ThyX) is 28 nM.

For `CCCCCCCC(=O)NCC#Cc1cn(C2CC(O)C(COP(=O)(O)O)O2)c(=O)[nH]c1=O` (stereo not drawn) [Compound 3], in data set [1] (C5-modified dUMP analogs, read-out: IC50), the half-maximal inhibitory concentration (IC50) is 910 nM.

`O=c1[nH]c2c(nc3ccccn32)c(=O)n1-c1ccc(F)cc1` [Compound 9a, 3-(4-Fluorophenyl)pyrido [1,2-e]purine-2,4(1H,3H)-dione]: in data set [2] (setting [6]), the inhibition (as a rule, the relative decrease from the control value, in per cent) at 50 µM was found to be 18.4%. Besides, the “Inhibition % (Mtb ThyX)” value in data set [2] (NADPH oxidase assay, 50 µM FAD) came to 59.4%. Also, the inhibition at 200 µM in data set [2] (setting [7]) came to 59.5%; in data set [2] (setting [8]), 76.1%; in data set [3], 59.5%. Moreover, the IC50 in data set [2] (calculated for 9a) is 95000 nM. In addition, the “activity on viral pathogens” value in data set [4] was “some promiscuous activity”. In addition, the toxicity result in data set [4] (evaluation on viral pathogens) is “without toxicity”.

As to `O=c1[nH]c2c(nc3ccccn32)c(=O)n1-c1ccc(Cl)cc1` [Compound 9b, 3-(4-Chlorophenyl)pyrido [1,2-e]purine-2,4(1H,3H)-dione], the inhibition at 50 µM in data set [2] (setting [6]) came to 2.2%. The inhibition at 200 µM in data set [2] (setting [7]) is 49.8%; in data set [2] (setting [8]) it was 12.6%; in data set [3], 77.1%. The “ThyX inhibition, tritium release assay” value in data set [3] was found to be 69.2%.

Take `Cc1ccc(-n2c(=O)[nH]c3c(nc4ccccn43)c2=O)cc1` [Compound 9d, 3-(p-Tolyl)pyrido [1,2-e]purine-2,4(1H,3H)-dione]: the inhibition at 50 µM in data set [2] (setting [6]) was found to be 2.6%. Moreover, in data set [2] (NADPH oxidase assay, 50 µM FAD), the “Inhibition % (Mtb ThyX)” value stood at 55.4%. The inhibition at 200 µM in data set [2] (setting [7]) stood at 55%; in data set [2] (setting [8]), 20.4%; in data set [3], 69.2%. In addition, the “ThyX inhibition, tritium release assay” value in data set [3] was 77.1%.

For the compound `CCCCCCNC(=O)NCC#Cc1ccn2c(c1)nc1c(=O)n(-c3ccc(F)cc3)c(=O)[nH]c12` [Compound 20g, 1-[3-[3-(p-Fluorophenyl)-2,4-dioxo-1H-purino [9,8-a]pyridin-7-yl]prop-2-ynyl]-3-hexyl-urea], the inhibition at 200 µM in data set [2] (setting [7]) amounted to 0%.

As to `O=c1[nH]c2c(nc3ccc(C#CCCc4ccccc4)cn32)c(=O)n1-c1ccc(F)cc1` [Compound 21a, 3-(p-Fluorophenyl)-8-(4-phenylbut-1-ynyl)-1H-purino [9,8-a]pyridine-2,4-dione], the inhibition at 200 µM in data set [2] (setting [7]) was found to be 69.1%.

With `CCCCC#Cc1ccc2nc3c(=O)n(-c4ccc(F)cc4)c(=O)[nH]c3n2c1` [Compound 21c, 3-(p-Fluorophenyl)-8-hex-1-ynyl-1H-purino [9,8-a]pyridine-2,4-dione], the inhibition at 200 µM in data set [2] (setting [7]) was determined as 0%.

On to `CCCCCC#Cc1ccc2nc3c(=O)n(-c4ccc(F)cc4)c(=O)[nH]c3n2c1` [Compound 21d, 3-(p-Fluorophenyl)-8-hept-1-ynyl-1H-purino [9,8-a]pyridine-2,4-dione], for which the inhibition at 200 µM in data set [2] (setting [7]) was determined as 32.5%.

As for `CCCCCCC#Cc1ccc2nc3c(=O)n(-c4ccc(F)cc4)c(=O)[nH]c3n2c1` [Compound 21e, 3-(p-Fluorophenyl)-8-oct-1-ynyl-1H-purino [9,8-a]pyridine-2,4-dione], the inhibition at 200 µM in data set [2] (setting [7]) was 31.7%.

Consider `CCCCCCCC(=O)NCC#Cc1ccc2nc3c(=O)n(-c4ccc(F)cc4)c(=O)[nH]c3n2c1` [Compound 21f, N-[3-[3-(p-fluorophenyl)-2,4-dioxo-1H-purino [9,8-a]pyridin-8-yl]prop-2-ynyl]octanamide], for which the inhibition at 200 µM in data set [2] (setting [7]) amounted to 16.9%.

`CCCCCCNC(=O)NCC#Cc1ccc2nc3c(=O)n(-c4ccc(F)cc4)c(=O)[nH]c3n2c1` [Compound 21g, 1-[3-[3-(p-Fluorophenyl)-2,4-dioxo-1H-purino [9,8-a]pyridin-8-yl]prop-2-ynyl]-3-hexyl-urea]: in data set [2] (setting [7]), the inhibition at 200 µM amounted to 28.2%.

Consider `O=c1[nH]c2c(nc3cc(-c4ccccc4)ccn32)c(=O)n1-c1ccc(F)cc1` [Compound 22a, 3-(p-Fluorophenyl)-7-phenyl-1H-purino [9,8-a]pyridine-2,4-dione], for which the inhibition at 200 µM in data set [2] (setting [7]) came to 20.7%.

Take `Cc1ccc(-c2ccn3c(c2)nc2c(=O)n(-c4ccc(F)cc4)c(=O)[nH]c23)cc1` [Compound 22b, 3-(p-Fluorophenyl)-7-(p-tolyl)-1H-purino [9,8-a]pyridine-2,4-dione]: the inhibition at 200 µM in data set [2] (setting [7]) was found to be 45.7%.

On to `COc1ccc(-c2ccn3c(c2)nc2c(=O)n(-c4ccc(F)cc4)c(=O)[nH]c23)cc1` [Compound 22c, 3-(p-Fluorophenyl)-7-(p-methoxyphenyl)-1H-purino [9,8-a]pyridine-2,4-dione], for which, in data set [2] (setting [7]), the inhibition at 200 µM is no more than 28%.

`O=c1[nH]c2c(nc3cc(-c4ccc(OC(F)(F)F)cc4)ccn32)c(=O)n1-c1ccc(F)cc1` [Compound 22d, 3-(p-fluorophenyl)-7-[p-(trifluoromethoxy)phenyl]-1H-purino [9,8-a]pyridine-2,4-dione]: the inhibition at 200 µM in data set [2] (setting [7]) was no more than 28%.

For `O=c1[nH]c2c(nc3cc(-c4ccc(F)cc4)ccn32)c(=O)n1-c1ccc(F)cc1` [Compound 22e, 3,7-Bis(p-fluorophenyl)-1H-purino [9,8-a]pyridine-2,4-dione], the inhibition at 200 µM in data set [2] (setting [7]) is no more than 28%.

Turning to `O=c1[nH]c2c(nc3ccc(-c4ccccc4)cn32)c(=O)n1-c1ccc(F)cc1` [Compound 23a, 3-(p-Fluorophenyl)-8-phenyl-1H-purino [9,8-a]pyridine-2,4-dione], in data set [2] (setting [7]), the inhibition at 200 µM was found to be 84.3%. Further, the CC50 (in general, the concentration that lowers cell viability or growth by half) in data set [5] is greater than 100000 nM.

In the case of `Cc1ccc(-c2ccc3nc4c(=O)n(-c5ccc(F)cc5)c(=O)[nH]c4n3c2)cc1` [Compound 23b, 3-(p-Fluorophenyl)-8-(p-tolyl)-1H-purino [9,8-a]pyridine-2,4-dione], the inhibition at 200 µM in data set [2] (setting [7]) was determined as 44.4%.

Take `COc1ccc(-c2ccc3nc4c(=O)n(-c5ccc(F)cc5)c(=O)[nH]c4n3c2)cc1` [Compound 23c, 3-(p-Fluorophenyl)-8-(p-methoxyphenyl)-1H-purino [9,8-a]pyridine-2,4-dione]: in data set [2] (setting [7]), the inhibition at 200 µM came out at 35.4%.

For the compound `O=c1[nH]c2c(nc3ccc(-c4ccc(OC(F)(F)F)cc4)cn32)c(=O)n1-c1ccc(F)cc1` [Compound 23d, 3-(p-Fluorophenyl)-8-[p-(trifluoromethoxy)phenyl]-1H-purino [9,8-a]pyridine-2,4-dione], the inhibition at 200 µM in data set [2] (setting [7]) was 29.4%.

In the case of `O=c1[nH]c2c(nc3ccc(-c4ccc(F)cc4)cn32)c(=O)n1-c1ccc(F)cc1` [Compound 23e, 3,8-Bis(p-Fluorophenyl)-1H-purino [9,8-a]pyridine-2,4-dione], in data set [2] (setting [7]), the inhibition at 200 µM amounted to 43.1%.

In the case of `Cc1cc(N2CCN(C(=O)CCN3C(=O)COc4ccccc43)CC2)nc(C(C)C)n1` [Compound B1-PP146, reference compound], the inhibition at 50 µM in data set [2] (positive control, value at 50 μM, NADPH oxidase assay, read-out: Inhibition % (Mtb ThyX)) came to 95.1%. Besides, in data set [1] (read-out: IC50 against ThyX), the IC50 is 690 nM.

The values are drawn from publication PMC9571937, “Synthesis and Structure–Activity Relationship Studies of Pyrido [1,2-e]Purine-2,4(1H,3H)-Dione Derivatives Targeting Flavin-Dependent Thymidylate Synthase in Mycobacterium tuberculosis” (Molecules, 2022).
